Measured values published in US20210029993A1, “SPATIAL INHIBITORS, DETERRENTS AND REPELLENTS FOR MOSQUITOES AND MIDGES” (BEDOUKIAN RESEARCH, INC., priority 2005, published 2021).

Assays:
Format in all cases: in vivo
[1] = system: female mosquitoes (Aedes aegypti); assay: Mosquitoes feeding test (Plexiglas module, treated membrane over dyed sucrose/ATP solution); details: for Feeding Relative To Control: control = 1.00, lower = more repellent; for contact mosquito repellent activity (feeding tests, FIGS. 1 and 3), in words: feeding relative to control
Description: (§1) The test was conducted at 0900-2100 hours in a walk-in incubator (26° C., 63-80% RH) illuminated by fluorescent lights. Mosquitoes were tested in a two-piece Plexiglas module designed to assess their response to feeding deterrents. The bottom piece of the module was 40×7×4-cm hollow platform supporting six circular wells (diameter=3.8 cm, depth=6 mm). Water (40° C.) flowed through the central cavity of the platform at a rate of 215 ml/min. The top piece of the module consisted of six 4.5×4.0×5.0 cm chambers, the floors of which were fitted with a sliding door positioned over a circular opening 3.5 cm in diameter. Mosquitoes were introduced through an aperture 1 cm in diameter on the front wall of the chambers. For each test, five female mosquitoes (Aedes aegypti) were aspirated into each of five chambers of the top module piece and the apertures were plugged with corks wrapped in plastic film. The wells on the bottom piece of the module were filled with 7 ml of 10% sucrose solution containing ATP (2.9 mg/ml). To each well, 75 μl of green dye (McCormick Food, Hunt Valley, Md.) were added so that those mosquitoes imbibing the sugar solution could be identified when crushed at the end of the tests. Each membrane received 50 ul of acetone or experimental compound solution, applied to 9.6 cm^2 circular area on 0.1 mm-thick membranes made of nylon mesh in a silicone matrix. The membranes were then placed over each well in contact with the sugar solution.
(§2) The circular openings on the floor of each chamber of the top piece of the module were aligned with each membrane-covered well of the bottom piece. The sliding floors of the chambers were then opened allowing mosquitoes access to the membranes. The number of mosquitoes landing on the membranes, and those flying within the apparatus, were recorded each minute for five minutes. After five minutes, any mosquitoes remaining on the membranes were removed with a metal wire, and the door of the floor of each chamber was closed. The top piece of the module was then placed into a freezer for 20 minutes. In the test designed to assess feeding, mosquitoes were removed from the frozen module, crushed on white paper towels, and examined for the presence of green dye to indicate that feeding had occurred. The proportions of mosquitoes feeding per trial were analyzed using a standard generalized linear model with a logit link. Landing and flying scores are repeated measures; five reading were obtained for groups of five mosquitoes. Thus, to maintain independence among the data, the five readings were summed, and then the sums divided by 25 (the maximum score in each category) to create proportions of mosquitoes landing and flying. The proportions were then transferred using the standard variance stabilizing transformation for proportions (sin^−1 √y, where y is the proportion), and analyzed using ANOVA (Analysis of Variables)
In Table 1, weight percent (wt %) refers to the weight of the deterring/repelling/inhibiting compound, or combination of compounds, in the composition used in the tests. […] The weight ratio of the compounds in the combination of compounds is given in parentheses in the “Compound(s)” column of Table 1.

biting midges = assay: Spatial inhibition of biting midges, outdoor trap catch; details: control trap = 100% catch, lower = more inhibition
Description: Two grams of test compound is absorbed onto pieces of absorbent material. These pieces of absorbent material (fragrance release material from Rhopore Inc.) containing absorbed test compound are then placed in a stream of CO2 and r-octenol being released from a biting midges biting midge trap designed to attract biting midges. The test are rotated over a period of 2-5 days in such a manner that both control (trap without test compound) and test compound are tested an equal number of times in each trap employed. The number of biting midges caught in the traps with test compounds is compared to the number of biting midges caught in the trap with no test compound material present. […] Thus, a lowered percentage is indicative of the increasing ability of the test compounds to inhibit the ability of the biting midges sense the target. In Table 6, weight percent (wt %) refers to the weight of the deterring/repelling/inhibiting compound, or combination of compounds, in the composition used in the tests. In the “Percent Caught Relative to Control” column in Table 6, a lower percentage is indicative of the increasing ability of the test compounds to inhibit the ability of the biting midges to sense the target. The weight ratio of the compounds in the combination of compounds is given in parentheses in the “Compound(s)” column of Table 6.

[2] = system: female mosquitoes (Aedes aegypti); assay: Mosquitoes flying test (Plexiglas module, mosquitoes flying within the apparatus); details: for Flying Relative To Control: control = 1, higher = more inhibitor activity; for spatial inhibitor activity for mosquitoes (flying tests, FIGS. 2 and 4), in words: flying relative to control
Description: as §1, §2
In Table 2, weight percent (wt %) refers to the weight of the deterring/repelling/inhibiting compound, or combination of compounds, in the composition used in the tests. […] The weight ratio of the compounds in the combination of compounds is given in parentheses in the “Compound(s)” column of Table 2.

[3] = 80 wt % compound(s) in composition
[4] = 85 wt % compound(s) in composition
[5] = 77.5 wt % compound(s) in composition
[6] = 92.5 wt % compound(s) in composition
[7] = 82.5 wt % compound(s) in composition
[8] = 87.5 wt % compound(s) in composition
[9] = 95 wt % compound(s) in composition
[10] = 90 wt % compound(s) in composition

## Cc1ccc(C(C)(C)O)cc1
[1]; [3]
  Feeding Relative To Control: 0.72
[1]
  contact mosquito repellent activity (feeding tests, FIGS. 1 and 3), in words: especially effective as contact mosquito repellents
Biting midges; [3]
  Percent Caught Relative To Control: 25%
[2]; [3]
  Flying Relative To Control: 1.0
[2]
  spatial inhibitor activity for mosquitoes (flying tests, FIGS. 2 and 4), in words: particularly effective as spatial inhibitors for mosquitoes

## C=C(C)[C@@H]1CC=C(C)[C@H](O)C1 (relative stereo) [cis-Carveol]
[1]; [4]
  Feeding Relative To Control: 0.66
Biting midges; [4]
  Percent Caught Relative To Control: 24%
[2]; [4]
  Flying Relative To Control: 1.35

## C=C(C)[C@@H]1CC=C(C)[C@@H](O)C1 (relative stereo) [trans-Carveol]
[1]; [5]
  Feeding Relative To Control: 0.64
Biting midges; [5]
  Percent Caught Relative To Control: 22%
[2]; [5]
  Flying Relative To Control: 1.55

## C=C(C)C1CCC2(C)OC2C1 (single isomer, unassigned; (-)) [(−) Limonene oxide]
[1]; [6]
  Feeding Relative To Control: 0.76
Biting midges; [6]
  Percent Caught Relative To Control: 16%
[2]; [6]
  Flying Relative To Control: 1.1

## CC(C)=CCCC(C)=CC=O [Citral]
[1]; [7]
  Feeding Relative To Control: 0.60
[1]
  contact mosquito repellent activity (feeding tests, FIGS. 1 and 3), in words: especially effective as contact mosquito repellents
Biting midges; [7]
  Percent Caught Relative To Control: 12%
[2]; [7]
  Flying Relative To Control: 2.0
[2]
  spatial inhibitor activity for mosquitoes (flying tests, FIGS. 2 and 4), in words: particularly effective as spatial inhibitors for mosquitoes

## CC(C)=CCCC(C)CC=O (stereo not shown) [Citronellal]
[1]; [6]
  Feeding Relative To Control: 0.62
[1]
  contact mosquito repellent activity (feeding tests, FIGS. 1 and 3), in words: especially effective as contact mosquito repellents
Biting midges; [6]
  Percent Caught Relative To Control: 12%
[2]; [6]
  Flying Relative To Control: 1.9
[2]
  spatial inhibitor activity for mosquitoes (flying tests, FIGS. 2 and 4), in words: particularly effective as spatial inhibitors for mosquitoes

## CC(C)=CCCC(C)CCO (stereo not shown) [Citronellol]
[1]; [8]
  Feeding Relative To Control: 0.62
Biting midges; [8]
  Percent Caught Relative To Control: 12%
[2]; [8]
  Flying Relative To Control: 1.55
[2]
  spatial inhibitor activity for mosquitoes (flying tests, FIGS. 2 and 4), in words: particularly effective as spatial inhibitors for mosquitoes

## CC(=O)OCCC(C)CCC=C(C)C (stereo not shown) [Citronellyl acetate]
[1]; [3]
  Feeding Relative To Control: 0.65
Biting midges; [3]
  Percent Caught Relative To Control: 25%
[2]; [3]
  Flying Relative To Control: 1.5
[2]
  spatial inhibitor activity for mosquitoes (flying tests, FIGS. 2 and 4), in words: particularly effective as spatial inhibitors for mosquitoes

## CC(=O)OC/C=C(\C)CCC=C(C)C [Geranyl acetate]
[1]; [4]
  Feeding Relative To Control: 0.68
[1]
  contact mosquito repellent activity (feeding tests, FIGS. 1 and 3), in words: especially effective as contact mosquito repellents
Biting midges; [4]
  Percent Caught Relative To Control: 29%
[2]; [4]
  Flying Relative To Control: 1.75
[2]
  spatial inhibitor activity for mosquitoes (flying tests, FIGS. 2 and 4), in words: particularly effective as spatial inhibitors for mosquitoes

## C=CC(C)(CCC=C(C)C)OC(C)=O (stereo not shown) [Linaloyl acetate]
[1]; [9]
  Feeding Relative To Control: 0.74
[1]
  contact mosquito repellent activity (feeding tests, FIGS. 1 and 3), in words: especially effective as contact mosquito repellents
Biting midges; [9]
  Percent Caught Relative To Control: 16%
[2]; [9]
  Flying Relative To Control: 1.3
[2]
  spatial inhibitor activity for mosquitoes (flying tests, FIGS. 2 and 4), in words: particularly effective as spatial inhibitors for mosquitoes

## CC(=O)OC/C=C(/C)CCC=C(C)C [Neryl acetate]
[1]; [5]
  Feeding Relative To Control: 0.76
[1]
  contact mosquito repellent activity (feeding tests, FIGS. 1 and 3), in words: especially effective as contact mosquito repellents
Biting midges; [5]
  Percent Caught Relative To Control: 20%
[2]; [5]
  Flying Relative To Control: 2.0
[2]
  spatial inhibitor activity for mosquitoes (flying tests, FIGS. 2 and 4), in words: particularly effective as spatial inhibitors for mosquitoes

## CC1=CCC(O)(C(C)C)CC1 (stereo not shown) [Terpinen-4-ol]
[1]; [10]
  Feeding Relative To Control: 0.74
Biting midges; [10]
  Percent Caught Relative To Control: 21%
[2]; [10]
  Flying Relative To Control: 1.7
[2]
  spatial inhibitor activity for mosquitoes (flying tests, FIGS. 2 and 4), in words: particularly effective as spatial inhibitors for mosquitoes

## CC(C)[C@@H]1CC[C@@H](C)C(=O)C1 [Tetrahydrocarvone]
[1]; [9]
  Feeding Relative To Control: 0.70
[1]
  contact mosquito repellent activity (feeding tests, FIGS. 1 and 3), in words: especially effective as contact mosquito repellents
Biting midges; [9]
  Percent Caught Relative To Control: 25%
[2]; [9]
  Flying Relative To Control: 1.65

## C=C(C)[C@H]1CC=C(C)C(=O)C1 [d-Carvone]
[1]; [5]
  Feeding Relative To Control: 0.64
[1]
  contact mosquito repellent activity (feeding tests, FIGS. 1 and 3), in words: especially effective as contact mosquito repellents
Biting midges; [5]
  Percent Caught Relative To Control: 13%
[2]; [5]
  Flying Relative To Control: 1.95
[2]
  spatial inhibitor activity for mosquitoes (flying tests, FIGS. 2 and 4), in words: particularly effective as spatial inhibitors for mosquitoes

## C=C[C@@](C)(O)CCC=C(C)C [d-Linalool, reference compound]
[1]; [3]
  Feeding Relative To Control: 0.32
Biting midges; [3]
  Percent Caught Relative To Control: 6%
[2]; [3]
  Flying Relative To Control: 1.25

## CC1=CCC(C(C)(C)O)CC1 (stereo not drawn) [α-terpineol]
[1]; [10]
  Feeding Relative To Control: 0.80
[1]
  contact mosquito repellent activity (feeding tests, FIGS. 1 and 3), in words: especially effective as contact mosquito repellents
Biting midges; [10]
  Percent Caught Relative To Control: 16%
[2]; [10]
  Flying Relative To Control: 1.15
[2]
  spatial inhibitor activity for mosquitoes (flying tests, FIGS. 2 and 4), in words: particularly effective as spatial inhibitors for mosquitoes

## (+) Limonene oxide
[1]; [8]
  Feeding Relative To Control: 0.78
Biting midges; [8]
  Percent Caught Relative To Control: 19%
[2]; [8]
  Flying Relative To Control: 0.90

## l-Carvone
[1]; [7]
  Feeding Relative To Control: 0.62
[1]
  contact mosquito repellent activity (feeding tests, FIGS. 1 and 3), in words: especially effective as contact mosquito repellents
Biting midges; [7]
  Percent Caught Relative To Control: 12%
[2]; [7]
  Flying Relative To Control: 1.75
[2]
  spatial inhibitor activity for mosquitoes (flying tests, FIGS. 2 and 4), in words: particularly effective as spatial inhibitors for mosquitoes
